Data published in patent publication US7772241B2, “Variolin derivatives and their use as antitumor agents” (Pharma Mar S.A., priority 2001, dated 2010).
Where two headings read alike, the source gives them in different places.

Key:
IGROV-1 = assay: Inhibition of cells growth by colorimetric (SRB) assay, IGROV-1
Procedure, shortened: (§1)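 Human tumour cells in RPMI 1640 with 10% FBS were seeded at 5×10^3 cells/well, allowed to attach for 18 h, then exposed to samples at 10 to 10^−8 μg/ml for 48 h. Growth was measured by SRB staining after TCA fixation, with absorbance read at 490 nm in triplicate wells.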

HeLa = assay: Inhibition of cells growth by colorimetric (SRB) assay, HeLa; settings: for GI50: Homo sapiens, HeLa, 48 h; as to HELA TGI: unit not given here
Procedure, shortened: as §1

SK-MEL-28 = assay: Inhibition of cells growth by colorimetric (SRB) assay, SK-MEL-28
Procedure, shortened: as §1

IGROV-ET = assay: Inhibition of cells growth by colorimetric (SRB) assay, IGROV-ET
Procedure, shortened: as §1

HT-29 = assay: Inhibition of cells growth by colorimetric (SRB) assay, HT-29
Procedure, shortened: as §1

LoVo-Dox = assay: Inhibition of cells growth by colorimetric (SRB) assay, LoVo-Dox
Procedure, shortened: as §1

HeLa-APL = assay: Inhibition of cells growth by colorimetric (SRB) assay, HeLa-APL; settings: for GI50 / CC50: Homo sapiens, 48 h
Procedure, shortened: as §1

SK-BR-3 = assay: Inhibition of cells growth by colorimetric (SRB) assay, SK-BR-3; settings: for GI50 / CC50: Homo sapiens, SK-BR-3, 48 h
Procedure, shortened: as §1

DU-145 = assay: Inhibition of cells growth by colorimetric (SRB) assay, DU-145
Procedure, shortened: as §1

LoVo = assay: Inhibition of cells growth by colorimetric (SRB) assay, LoVo
Procedure, shortened: as §1

LNCaP = assay: Inhibition of cells growth by colorimetric (SRB) assay, LNCaP
Procedure, shortened: as §1

A-549 = assay: Inhibition of cells growth by colorimetric (SRB) assay, A-549
Procedure, shortened: as §1

PANC-1 = assay: Inhibition of cells growth by colorimetric (SRB) assay, PANC-1
Procedure, shortened: as §1

K-562 = assay: Inhibition of cells growth by colorimetric (SRB) assay, K-562
Procedure, shortened: as §1

In the case of `COc1ccnc2c1c(-c1ccnc(N)n1)c1ccnc(N)n12.Cl` [Compound 116], the “TGI IGROV” value (IGROV-1; SRB assay, 48 hours exposure) is reported as 1.66E−06, the GI50 (IGROV-1; read-out: GI50 IGROV, SRB assay, 48 hours exposure) is reported as 934 nM and the CC50 (IGROV-1; read-out: LC50 IGROV, SRB assay, 48 hours exposure) is reported as 26300 nM. The GI50 (HeLa; read-out: GI50 HELA, SRB assay, 48 hours exposure) was 151 nM, the “TGI HELA” value (HeLa; SRB assay, 48 hours exposure) was 5.26E−07 and the “TGI MEL-28” value (SK-MEL-28; SRB assay, 48 hours exposure) was 2.11E−06. The GI50 (SK-MEL-28; read-out: GI50 MEL-28, SRB assay, 48 hours exposure) was 1100 nM, the CC50 (SK-MEL-28; read-out: LC50 MEL-28, SRB assay, 48 hours exposure) was 10400 nM and the “TGI IGROV-ET” value (IGROV-ET; SRB assay, 48 hours exposure) was 2.50E−06. The GI50 (IGROV-ET; read-out: GI50 IGROV-ET, SRB assay, 48 hours exposure) was 1370 nM, the CC50 (IGROV-ET; read-out: LC50 IGROV-ET, SRB assay, 48 hours exposure) was 26300 nM and the “TGI HT-29” value (HT-29; SRB assay, 48 hours exposure) was 1.88E−05. For the same compound, the GI50 (HT-29; read-out: GI50 HT-29, SRB assay, 48 hours exposure) was 6180 nM, the CC50 (HT-29; read-out: LC50 HT-29, SRB assay, 48 hours exposure) was 26300 nM and the “TGI LOVO-DOX” value (LoVo-Dox; SRB assay, 48 hours exposure) was 2.59E−06. For the same compound, the GI50 (LoVo-Dox; read-out: GI50 LOVO-DOX, SRB assay, 48 hours exposure) was 1070 nM, the CC50 (LoVo-Dox; read-out: LC50 LOVO-DOX, SRB assay, 48 hours exposure) was 26300 nM and the GI50 (HeLa-APL; read-out: GI50 HELA-APL, SRB assay, 48 hours exposure) was 98.9 nM. The CC50 (HeLa-APL; read-out: LC50 HELA-APL, SRB assay, 48 hours exposure) was 2300 nM, the “TGI HELA-APL” value (HeLa-APL; SRB assay, 48 hours exposure) was 2.17E−07 and the GI50 (SK-BR-3; read-out: GI50 SK-BR-3, SRB assay, 48 hours exposure) was 892 nM. The CC50 (SK-BR-3; read-out: LC50 SK-BR-3, SRB assay, 48 hours exposure) was 3500 nM, the “TGI SK-BR-3” value (SK-BR-3; SRB assay, 48 hours exposure) was 1.55E−06 and the “TGI DU-145” value (DU-145; SRB assay, 48 hours exposure) was 2.54E−06. The GI50 (DU-145; read-out: GI50 DU-145, SRB assay, 48 hours exposure) was 1130 nM, the CC50 (DU-145; read-out: LC50 DU-145, SRB assay, 48 hours exposure) was 26300 nM and the “TGI LOVO” value (LoVo; SRB assay, 48 hours exposure) was 1.22E−06. For the same compound, the GI50 (LoVo; read-out: GI50 LOVO, SRB assay, 48 hours exposure) was 550 nM, the CC50 (LoVo; read-out: LC50 LOVO, SRB assay, 48 hours exposure) was 26300 nM and the “TGI LN-caP” value (LNCaP; SRB assay, 48 hours exposure) was 1.21E−06. For the same compound, the GI50 (LNCaP; read-out: GI50 LN-caP, SRB assay, 48 hours exposure) was 602 nM, the CC50 (LNCaP; read-out: LC50 LN-caP, SRB assay, 48 hours exposure) was 2430 nM and the “TGI A-549” value (A-549; SRB assay, 48 hours exposure) was 7.68E−06. For the same compound, the GI50 (A-549; read-out: GI50 A-549, SRB assay, 48 hours exposure) was 1150 nM, the CC50 (A-549; read-out: LC50 A-549, SRB assay, 48 hours exposure) was 26300 nM and the “TGI PANC-1” value (PANC-1; SRB assay, 48 hours exposure) was 1.29E−05. For the same compound, the GI50 (PANC-1; read-out: GI50 PANC-1, SRB assay, 48 hours exposure) was 1790 nM, the CC50 (PANC-1; read-out: LC50 PANC-1, SRB assay, 48 hours exposure) was 26300 nM and the “TGI K-562” value (K-562; SRB assay, 48 hours exposure) was 2.12E−05. The GI50 (K-562; read-out: GI50 K-562, SRB assay, 48 hours exposure) was 2870 nM and the CC50 (K-562; read-out: LC50 K-562, SRB assay, 48 hours exposure) was 26300 nM.

With `Nc1nccc(-c2c3cccnc3n3c(N)nccc23)n1` [Deoxyvariolin 4, deoxyvariolin B, reference compound] the GI50 (IGROV-1; Homo sapiens, IGROV-1, 48 h, read-out: IGROV GI50, SRB assay, 48 hours exposure) was 80.8 nM, the CC50 (IGROV-1; Homo sapiens, IGROV-1, 48 h, read-out: IGROV LC50, SRB assay, 48 hours exposure) was 1320 nM and the “IGROV TGI” value (IGROV-1; SRB assay, 48 hours exposure) was 8.10E−08. The GI50 (HeLa; read-out: HELA GI50, SRB assay, 48 hours exposure) was 81.1 nM, the “HELA TGI” value (HeLa; SRB assay, 48 hours exposure) was 1.60E−07 and the GI50 (SK-MEL-28; Homo sapiens, SK-MEL-28, 48 h, read-out: MEL-28 GI50, SRB assay, 48 hours exposure) was 69.2 nM. The CC50 (SK-MEL-28; Homo sapiens, SK-MEL-28, 48 h, read-out: MEL-28 LC50, SRB assay, 48 hours exposure) was 321 nM, the “MEL-28 TGI” value (SK-MEL-28; SRB assay, 48 hours exposure) was 1.49E−07 and the GI50 (IGROV-ET; Homo sapiens, 48 h, read-out: IGROV-ET GI50, SRB assay, 48 hours exposure) was 129 nM. The CC50 (IGROV-ET; Homo sapiens, 48 h, read-out: IGROV-ET LC50, SRB assay, 48 hours exposure) was 22900 nM, the “IGROV-ET TGI” value (IGROV-ET; SRB assay, 48 hours exposure) was 3.42E−07 and the GI50 (HT-29; Homo sapiens, HT-29, 48 h, read-out: HT-29 GI50, SRB assay, 48 hours exposure) was 117 nM. For the same compound, the CC50 (HT-29; Homo sapiens, HT-29, 48 h, read-out: HT-29 LC50, SRB assay, 48 hours exposure) was 11300 nM, the “HT-29 TGI” value (HT-29; SRB assay, 48 hours exposure) was 4.98E−07 and the GI50 (LoVo-Dox; Homo sapiens, 48 h, read-out: LOVO-DOX GI50, SRB assay, 48 hours exposure) was 101 nM. The CC50 (LoVo-Dox; Homo sapiens, 48 h, read-out: LOVO-DOX LC50, SRB assay, 48 hours exposure) was 36100 nM, the “LOVO-DOX TGI” value (LoVo-Dox; SRB assay, 48 hours exposure) was 2.96E−07 and the GI50 (HeLa-APL; read-out: HELA-APL GI50, SRB assay, 48 hours exposure) was 66 nM. For the same compound, the CC50 (HeLa-APL; read-out: HELA-APL LC50, SRB assay, 48 hours exposure) was 318 nM, the “HELA-APL TGI” value (HeLa-APL; SRB assay, 48 hours exposure) was 1.45E−07 and the GI50 (SK-BR-3; read-out: SK-BR-3 GI50, SRB assay, 48 hours exposure) was 73.6 nM. For the same compound, the CC50 (SK-BR-3; read-out: SK-BR-3 LC50, SRB assay, 48 hours exposure) was 345 nM, the “SK-BR-3 TGI” value (SK-BR-3; SRB assay, 48 hours exposure) was 1.59E−07 and the GI50 (DU-145; Homo sapiens, DU-145, 48 h, read-out: DU-145 GI50, SRB assay, 48 hours exposure) was 95.2 nM. For the same compound, the CC50 (DU-145; Homo sapiens, DU-145, 48 h, read-out: DU-145 LC50, SRB assay, 48 hours exposure) was 5300 nM, the “DU-145 TGI” value (DU-145; SRB assay, 48 hours exposure) was 2.46E−07 and the GI50 (LoVo; Homo sapiens, LoVo, 48 h, read-out: LOVO GI50, SRB assay, 48 hours exposure) was 102 nM. For the same compound, the CC50 (LoVo; Homo sapiens, LoVo, 48 h, read-out: LOVO LC50, SRB assay, 48 hours exposure) was 22100 nM, the “LOVO TGI” value (LoVo; SRB assay, 48 hours exposure) was 2.54E−07 and the GI50 (LNCaP; Homo sapiens, LNCaP, 48 h, read-out: LN-caP GI50, SRB assay, 48 hours exposure) was 64.2 nM. For the same compound, the CC50 (LNCaP; Homo sapiens, LNCaP, 48 h, read-out: LN-caP LC50, SRB assay, 48 hours exposure) was 272 nM, the “LN-caP TGI” value (LNCaP; SRB assay, 48 hours exposure) was 1.32E−07 and the GI50 (A-549; Homo sapiens, A549, 48 h, read-out: A-549 GI50, SRB assay, 48 hours exposure) was 63.8 nM. The CC50 (A-549; Homo sapiens, A549, 48 h, read-out: A-549 LC50, SRB assay, 48 hours exposure) was 12200 nM, the “A-549 TGI” value (A-549; SRB assay, 48 hours exposure) was 2.62E−07 and the GI50 (PANC-1; Homo sapiens, PANC-1, 48 h, read-out: PANC-1 GI50, SRB assay, 48 hours exposure) was 162 nM. For the same compound, the CC50 (PANC-1; Homo sapiens, PANC-1, 48 h, read-out: PANC-1 LC50, SRB assay, 48 hours exposure) was 15400 nM, the “PANC-1 TGI” value (PANC-1; SRB assay, 48 hours exposure) was 1.76E−06 and the GI50 (K-562; Homo sapiens, K562, 48 h, read-out: K-562 GI50, SRB assay, 48 hours exposure) was 727 nM. The CC50 (K-562; Homo sapiens, K562, 48 h, read-out: K-562 LC50, SRB assay, 48 hours exposure) was 24600 nM and the “K-562 TGI” value (K-562; SRB assay, 48 hours exposure) was 2.20E−06.
